Source: publication PMC2997755 (Clinical cancer research : an official journal of the …, 2009)
Where two headings read alike, the source gives them in different places.

Key:
[1] = human, in vivo
[2] = clinical; type: in vivo; details: for AUC(0-inf) / AUC(0-t) / clearance / Cmax / half-life: human, plasma
[3] = Vorinostat serum pharmacokinetics, cycle 1; type: in vivo; details: for CL/F / AUC(0-inf) / AUC(0-t) / Cmax / half-life: mean (St dev); for AUC(0-inf) / AUC(0-t) / Cmax / half-life: human, serum, oral; for AUC(0-inf): AUCinf; for AUC(0-t): AUCt
[4] = cited from earlier work
[5] = Phase I safety and tolerability: DLTs, MTD, adverse events; details: sequential schedule dose level -1b; days 6-12, with decitabine 10 mg/m^2/day on days 1-5
[6] = 100 mg, Sequential schedule, 100 mg BID, day 9 of cycle 1
[7] = 200 mg, Concurrent schedule, 200 mg BID, day 4 of cycle 1
[8] = 200 mg, Sequential schedule, 200 mg BID, day 9 of cycle 1
[9] = 200 mg, Sequential schedule, 200 mg TID, day 9 of cycle 1
[10] = 200 mg, Concurrent schedule, 200 mg TID, day 4 of cycle 1

SMILES: Nc1ncn([C@H]2C[C@H](O)[C@@H](CO)O2)c(=O)n1 [decitabine, 5-aza-2'-deoxycytidine]
- RP2D (recommended phase II dose) [1]: 10 mg/m^2/day
- Pharmacokinetic parameters on day 1 versus day 5 within the same dose level ([2]; either schedule): No significant differences
- AUC(0-inf) ([2]; intravenous, 10 mg/m2, AUCinf, Concurrent schedule, 10 mg/m^2, Day 1, mean (St dev)): 77.6 ng·h/mL
- AUC(0-inf) ([2]; intravenous, 10 mg/m2, AUCinf, Concurrent schedule, 10 mg/m^2, Day 5, mean (St dev)): 57.4 ng·h/mL
- AUC(0-inf) ([2]; intravenous, 10 mg/m2, AUCinf, Sequential schedule, 10 mg/m^2, Day 1, mean (St dev)): 48.4 ng·h/mL
- AUC(0-inf) ([2]; intravenous, 10 mg/m2, AUCinf, Sequential schedule, 10 mg/m^2, Day 5, mean (St dev)): 57.8 ng·h/mL
- AUC(0-t) ([2]; intravenous, 10 mg/m2, AUCt, Concurrent schedule, 10 mg/m^2, Day 1, mean (St dev)): 75.8 ng·h/mL
- AUC(0-t) ([2]; intravenous, 10 mg/m2, AUCt, Concurrent schedule, 10 mg/m^2, Day 5, mean (St dev)): 56.3 ng·h/mL
- AUC(0-t) ([2]; intravenous, 10 mg/m2, AUCt, Sequential schedule, 10 mg/m^2, Day 5, mean (St dev)): 55.8 ng·h/mL
- clearance ([2]; intravenous, 10 mg/m2, CL, Concurrent schedule, 10 mg/m^2, Day 1, mean (St dev)): 4670 mL/min
- clearance ([2]; intravenous, 10 mg/m2, CL, Concurrent schedule, 10 mg/m^2, Day 5, mean (St dev)): 5570 mL/min
- clearance ([2]; intravenous, 10 mg/m2, CL, Sequential schedule, 10 mg/m^2, Day 1, mean (St dev)): 7600 mL/min
- clearance ([2]; intravenous, 10 mg/m2, CL, Sequential schedule, 10 mg/m^2, Day 5, mean (St dev)): 6130 mL/min
- Cmax ([2]; intravenous, 10 mg/m2, Cmax, Concurrent schedule, 10 mg/m^2, Day 1, mean (St dev)): 88.6 ng/mL
- Cmax ([2]; intravenous, 10 mg/m2, Cmax, Concurrent schedule, 10 mg/m^2, Day 5, mean (St dev)): 62.9 ng/mL
- Cmax ([2]; intravenous, 10 mg/m2, Cmax, Sequential schedule, 10 mg/m^2, Day 1, mean (St dev)): 57.5 ng/mL
- Cmax ([2]; intravenous, 10 mg/m2, Cmax, Sequential schedule, 10 mg/m^2, Day 5, mean (St dev)): 67.5 ng/mL
- half-life ([2]; intravenous, 10 mg/m2, t1/2, Concurrent schedule, 10 mg/m^2, Day 1, mean (St dev)): 16.2 min
- half-life ([2]; intravenous, 10 mg/m2, t1/2, Concurrent schedule, 10 mg/m^2, Day 5, mean (St dev)): 16.2 min
- half-life ([2]; intravenous, 10 mg/m2, t1/2, Sequential schedule, 10 mg/m^2, Day 1, mean (St dev)): 20.4 min
- half-life ([2]; intravenous, 10 mg/m2, t1/2, Sequential schedule, 10 mg/m^2, Day 5, mean (St dev)): 22.8 min
- AUC(0-inf) ([2]; intravenous, 15 mg/m2, AUCinf, Sequential schedule, 15 mg/m^2, Day 1, mean (St dev)): 116 ng·h/mL
- AUC(0-inf) ([2]; intravenous, 15 mg/m2, AUCinf, Sequential schedule, 15 mg/m^2, Day 5, mean (St dev)): 116 ng·h/mL
- AUC(0-t) ([2]; intravenous, 15 mg/m2, AUCt, Sequential schedule, 15 mg/m^2, Day 1, mean (St dev)): 112 ng·h/mL
- AUC(0-t) ([2]; intravenous, 15 mg/m2, AUCt, Sequential schedule, 15 mg/m^2, Day 5, mean (St dev)): 114 ng·h/mL
- clearance ([2]; intravenous, 15 mg/m2, CL, Sequential schedule, 15 mg/m^2, Day 1, mean (St dev)): 5670 mL/min
- clearance ([2]; intravenous, 15 mg/m2, CL, Sequential schedule, 15 mg/m^2, Day 5, mean (St dev)): 3930 mL/min
- Cmax ([2]; intravenous, 15 mg/m2, Cmax, Sequential schedule, 15 mg/m^2, Day 1, mean (St dev)): 129 ng/mL
- Cmax ([2]; intravenous, 15 mg/m2, Cmax, Sequential schedule, 15 mg/m^2, Day 5, mean (St dev)): 142 ng/mL
- half-life ([2]; intravenous, 15 mg/m2, t1/2, Sequential schedule, 15 mg/m^2, Day 1, mean (St dev)): 22.8 min
- half-life ([2]; intravenous, 15 mg/m2, t1/2, Sequential schedule, 15 mg/m^2, Day 5, mean (St dev)): 19.8 min
- AUC(0-inf) ([2]; intravenous, 20 mg/m2, AUCinf, Sequential schedule, 20 mg/m^2, Day 1, mean (St dev)): 119 ng·h/mL
- AUC(0-inf) ([2]; intravenous, 20 mg/m2, AUCinf, Sequential schedule, 20 mg/m^2, Day 5, mean (St dev)): 165 ng·h/mL
- AUC(0-t) ([2]; intravenous, 20 mg/m2, AUCt, Sequential schedule, 20 mg/m^2, Day 1, mean (St dev)): 115 ng·h/mL
- AUC(0-t) ([2]; intravenous, 20 mg/m2, AUCt, Sequential schedule, 20 mg/m^2, Day 5, mean (St dev)): 161 ng·h/mL
- clearance ([2]; intravenous, 20 mg/m2, CL, Sequential schedule, 20 mg/m^2, Day 1, mean (St dev)): 5280 mL/min
- clearance ([2]; intravenous, 20 mg/m2, CL, Sequential schedule, 20 mg/m^2, Day 5, mean (St dev)): 3920 mL/min
- Cmax ([2]; intravenous, 20 mg/m2, Cmax, Sequential schedule, 20 mg/m^2, Day 1, mean (St dev)): 135 ng/mL
- Cmax ([2]; intravenous, 20 mg/m2, Cmax, Sequential schedule, 20 mg/m^2, Day 5, mean (St dev)): 198 ng/mL
- half-life ([2]; intravenous, 20 mg/m2, t1/2, Sequential schedule, 20 mg/m^2, Day 1, mean (St dev)): 21.6 min
- half-life ([2]; intravenous, 20 mg/m2, t1/2, Sequential schedule, 20 mg/m^2, Day 5, mean (St dev)): 25.2 min
- half-life ([2]; iv, half-life, patients, 1-hour intravenous infusion): ~20 min
- Dose proportionality of Cmax and AUC ([2]; sequential schedule, increasing doses of decitabine): did not produce dose proportional increases

SMILES: O=C(CCCCCCC(=O)Nc1ccccc1)NO [vorinostat, suberoylanilide hydroxamic acid]
- Cmax, AUCinf and AUCt, concurrent versus sequential schedule ([3]; 200mg BID dose level, p 0.09, 0.004 and 0.0005): lower in the concurrent schedule
- CL/F ([3]; Concurrent schedule, 200 mg BID, day 4 of cycle 1): 5.3 (2.3) ml/min
- CL/F ([3]; Sequential schedule, 100 mg BID, day 9 of cycle 1): 4.3(2.3) ml/min
- CL/F ([3]; Sequential schedule, 200 mg BID, day 9 of cycle 1): 3(0.7) ml/min
- CL/F ([3]; Sequential schedule, 200 mg TID, day 9 of cycle 1): 4(3.7) ml/min
- AUC(0-inf) [3, 6]: 446 ng·h/mL
- AUC(0-t) [3, 6]: 424 ng·h/mL
- Cmax [3, 6]: 165 ng/mL
- half-life ([3]; 100 mg, t1/2, Sequential schedule, 100 mg BID, day 9 of cycle 1): 83.4 min
- AUC(0-inf) [3, 7]: 708 ng·h/mL
- AUC(0-inf) [3, 8]: 1180 ng·h/mL
- AUC(0-inf) [3, 9]: 1350 ng·h/mL
- AUC(0-t) [3, 7]: 573 ng·h/mL
- AUC(0-t) [3, 10]: 883 ng·h/mL
- AUC(0-t) [3, 8]: 1020 ng·h/mL
- AUC(0-t) [3, 9]: 1090 ng·h/mL
- Cmax [3, 7]: 214 ng/mL
- Cmax [3, 10]: 227 ng/mL
- Cmax [3, 8]: 313 ng/mL
- half-life ([3]; 200 mg, t1/2, Concurrent schedule, 200 mg BID, day 4 of cycle 1): 143 min
- half-life ([3]; 200 mg, t1/2, Sequential schedule, 200 mg BID, day 9 of cycle 1): 153 min
- half-life ([3]; 200 mg, t1/2, Sequential schedule, 200 mg TID, day 9 of cycle 1): 103 min
- Dose proportionality of AUC and Cmax after a single administration ([3]; sequential schedule, dose increased from 100 mg to 200 mg): increased proportionaly
- maximum tolerated dose, monotherapy ([4]; patients with hematologic malignancies): 250 mg orally thrice a day for 14 days every 21 days
- maximum tolerated dose, monotherapy ([4]; patients with solid tumors): 200 mg orally twice a day continuously
- RP2D (recommended phase II dose) [5]: 200 mg twice daily
